Assay results: patent publication US4282232A, “Nitroimidazole radiosensitizers for hypoxic tumor cells and compositions thereof” (priority 1979, dated 1981)
Like-named read-outs stand apart in the source and are kept apart here.

Key:
hypoxic tumor cells = details: cited from earlier work; for selectivity (tumor cells versus normal tissue cells): DNA incorporating drugs; for radiosensitizing activity (in words): in vitro and/or in vivo
mice of strain BDF1 [1] = assay: in vivo; details: intraperitoneal, 24 hours observation
Method: (§1) Neurotoxicity in mice was determined using mice of strain BDF1. This was carried out by (1) determining the LD50 of each compound in mice and (2) observing the animals for acute neurotoxic symptoms such as convulsions. The drugs were either solubilized or suspended in normal saline and administered intraperitoneally to groups of 10 mice.

in vivo = details: mouse, in vivo, ip
Method: as §1

[2] = In vitro cytotoxicity (2 hour exposure); type: cell-based; details: chinese hamster, v-79-753 b cells; for cytotoxicity at 2 h, 1000 µM: at 1mM; for MNTC at 2 h: read-out: In-vitro Cytotoxicity in cells: Nontoxic up to (concentration)
Method: (§2) Asynchronous monolayer cultures of Chinese hamster cells line V-79-753 B were employed in all the experiments. The monolayers were derived from exponentially-growing cultures. Methods of culturing and handling have been reported earlier by Cooke et al, Rad. Res. 65, 152 (1976). The plated cultures were rendered hypoxic in sealed dural containers capable of holding four petri dishes, by purging with nitrogen (oxygen-free grade) for one hour. Irradiation was carried out by using a Cobalt-60 source at a dose rate of approximately 310 rad/min according to the procedure described previously be Cooke et al, supra. A dose of 1395 rad was given to hypoxic cells in glass petri dishes in the presence of a given drug concentration (2000 cells/dish). Cell survival was estimated from unirradiated hypoxic cells exposed to the same drug concentration. Cultures were incubated for 6 days at 37° C. in an atmosphere of 5% CO2; the resulting colonies were fixed in absolute ethanol, stained with methylene blue and counted.
To determine toxicity in vitro, glass petri dishes containing approximately 200 cells/dish were exposed to a range of concentrations of each drug for 2 hours at room temperature (20° C.) in air or in hypoxia. Drug concentrations […] were employed.

[3] = tested on: Chinese hamster cells line V-79-753 B; assay: Radiosensitization of hypoxic Chinese hamster cells (Cobalt-60 irradiation, enhancement ratio); type: cell-based; details: 1395 rad Cobalt-60
Method: as §2

[4] = Toxicity, general statements of the description
mice of strain BDF1 [5] = details: footnote *: P. W. Sheldon, et al, Br. J. Cancer, 35, 795, 800 (1977); 1440 min; cited from earlier work
Redox potential = type: physicochemical
humans = details: cited from earlier work
mice = details: cited from earlier work
[6] = tested on: hypoxic cells (Chinese hamster cells line V-79-753 B); assay: Differential cytotoxicity of hypoxic cells; type: cell-based
Method: as §2
[…] Drug concentrations between 10 μM were employed.

[7] = read-out: In-vitro Cytotoxicity in cells: inhibition

O=c1[nH]c(=O)n([C@H]2C[C@H](O)[C@@H](CO)O2)cc1F [FUdR, 5-Fluorodeoxyuridine]
selectivity (tumor cells versus normal tissue cells) (hypoxic tumor cells): failed precisely because of their poor selectivity problem

O=c1[nH]c(=O)n([C@H]2C[C@H](O)[C@@H](CO)O2)cc1Br [BUdR, 5-Bromodeoxyuridine]
selectivity (tumor cells versus normal tissue cells) (hypoxic tumor cells): failed precisely because of their poor selectivity problem

O=[N+]([O-])c1nccn1CCN1CCCCC1 [D, 1-piperidinoethyl-2-nitroimidazole]
Convulsions in mice at LD50 doses (mice of strain BDF1 [1]): yes | LD50 at 24 h (in vivo): 800 mg/kg | cytotoxicity at 2 h, 1000 µM [2, 7]: 70% | Radiosensitization (enhancement ratio at 1mM in chinese hamster cells) [3]: ~2.1

C[N+]1(CCn2ccnc2[N+](=O)[O-])CCCCC1 [E, 1-(1'-methiodide)-piperidinoethyl-2-nitroimidazole]
Convulsions in mice at LD50 doses (mice of strain BDF1 [1]): yes | LD50 at 24 h (in vivo): 250 mg/kg | toxicity (in words) [4]: more toxic than the parent non-quaternized piperidino compound itself | cytotoxicity at 2 h, 2000 µM ([2]; at 2mM, read-out: In-vitro Cytotoxicity in cells: inhibition): 30%

Cc1ncc([N+](=O)[O-])n1CCO [G, Metronidazole]
LD50 in mice (mice of strain BDF1 [5]): 3.5 g/kg | Redox Potential (Redox potential): -0.486 V | central nervous system (CNS) toxicity (humans; in vivo): limiting factor for their use in humans | serious side effects when administered orally (mice; mouse, in vivo, po): peripheral neuropathy and convulsions in mice | radiosensitizing activity (in words) (hypoxic tumor cells; as worded, listed as Metronidazole): active both in vivo and in vitro | radiosensitizing activity (in words) (hypoxic tumor cells; as worded, listed as metronidazole): effective in vivo | Radiosensitization (enhancement ratio at 1mM in chinese hamster cells) [3]: 1.5 | Differential cytotoxicity of hypoxic cells ([6]; exposure time not given): yes

COCC(O)Cn1ccnc1[N+](=O)[O-] (stereo not drawn) [F, Misonidazole]
Redox Potential (Redox potential): -0.389 V | central nervous system (CNS) toxicity (humans; use in humans): limiting factor for their use in humans | serious side effects when administered orally (mice; oral, mice): peripheral neuropathy and convulsions in mice | radiosensitizing activity (in words) (hypoxic tumor cells): effective in vivo | Differential cytotoxicity of hypoxic cells ([6]; exposure time not given): yes

O=[N+]([O-])c1nccn1CC[N+]1([O-])CCCCC1 [C, 1-(1'-oxido)piperidinoethyl-2-nitroimidazole]
Redox Potential (Redox potential): -0.32 V | Convulsions in mice at LD50 doses (mice of strain BDF1 [1]): None | LD50 at 24 h (in vivo): > 5000 mg/kg | MNTC at 2 h [2]: ≥ 20 mM | Radiosensitization (enhancement ratio at 1mM in chinese hamster cells) [3]: 2.2 | Differential cytotoxicity of hypoxic cells ([6]; up to 4 hours): None

O=[N+]([O-])c1nc2ccccc2n1CCN1CCCCC1 [B, 1-piperidinoethyl-2-nitrobenzimidazole]
Convulsions in mice at LD50 doses (mice of strain BDF1 [1]): Yes | LD50 in mice (mice of strain BDF1 [1]): < 1 g | cytotoxicity at 2 h, 1000 µM [2, 7]: 50%

O=[N+]([O-])c1nc2ccccc2n1CC[N+]1([O-])CCCCC1 [A, 1-(1'-oxido)piperidinoethyl-2-nitrobenzimidazole]
Convulsions in mice at LD50 doses (mice of strain BDF1 [1]): None | LD50 at 24 h (in vivo): ~5000 mg/kg | MNTC at 2 h [2]: ≥ 10 mM

CN(C)CCC(=O)c1ccc([N+](=O)[O-])cc1.Cl [NDPP, p-nitro-3-dimethylamino propiophenone HCl]
radiosensitizing activity (in words) (hypoxic tumor cells): appeared promising in vitro
